SMILES strings stand for the structures. In brackets after ≈: the same amount, converted by molar mass.

One data set can be described thus: Solubility pH 7. The following applies: pH 7, aqueous buffer.
Data set [1] addresses human constitutive 20S proteasome (c20S) (Homo sapiens, UniProt P28074). Kind of data set: 20S proteasome assay, chymotrypsin-like activity (succinyl-Leu-Leu-Val-Tyr-AMC), c20S. The following applies: LLVY substrate, 1 h continuous. In kind it is biochemical. The source says: (§1) Assay buffer consisted of TE buffer [20 mmol/L Tris (pH 8.0), 0.5 mmol/L EDTA] with (20S) or without (cell lysate) 0.03% SDS. Reactions were initiated by enzyme or lysate addition and monitored for AMC product formation at 27jC with a plate-based spectofluorometer (Tecan).

Data set [2] deals with human 20S immunoproteasome (i20S) (Homo sapiens, UniProt P28062). Kind of data set: 20S proteasome assay, chymotrypsin-like activity (succinyl-Leu-Leu-Val-Tyr-AMC), i20S. The format is biochemical. To be noted: LLVY substrate, 1 h continuous.
Text: as §1

Data set [3] addresses T1, proteasome subunit β5 (beta5) (Homo sapiens, UniProt P28074).
T1 construct: Lysate from the human acute lymphoblastic leukemia cell line, MOLT-4; endogenous in cells; host or cells: MOLT-4
Put plainly: Proteasome active-site ELISA (ProCISE), beta5, MOLT-4 lysate. In kind it is biochemical. The following applies: MOLT4 lysate, human, 1 h continuous treatment, 25° C. The essentials: (§2)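 MOLT-4 cell lysate treated 1 h at 25 °C with compound; probe-bound subunits denatured, pulled down on streptavidin beads and detected with subunit-specific antibodies plus HRP chemiluminescence.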

The target in data set [4] is T2, immunoproteasome subunit LMP7 (Homo sapiens, UniProt P28062).
T2 construct: Lysate from the human acute lymphoblastic leukemia cell line, MOLT-4; endogenous in cells; host or cells: MOLT-4
Put plainly: Proteasome active-site ELISA (ProCISE), LMP7, MOLT-4 lysate. In kind it is biochemical. To be noted: MOLT4 lysate, 1 h continuous treatment, 25° C. Summed up: as §2
On the technique in general: In an ELISA, binding on a coated surface is turned into a signal by an enzyme label.

`COc1ccc(C[C@H](NC(=O)[C@@H](C)NC(=O)CC2CCOCC2)C(=O)N[C@@H](CC2CCCC2)C(=O)[C@@]2(C)CO2)cc1` [Compound C-1011, (S)-N-((S)-3-cyclopentyl-1-((R)-2-methyloxiran-2-yl)-1-oxopropan-2-yl)-3-(4-methoxyphenyl)-2-((R)-2-(2-(tetrahydro-2H-pyran-4-yl)acetamido)propanamido)propanamide] returned a solubility in “Solubility pH 7” of 1120 µg/mL (≈ 1950 µM). The IC50 is 1550 nM in data set [1], 98.8 nM in data set [2], 6970 nM in data set [3] and 556 nM in data set [4].

Compound `C[C@H](NC(=O)CN1CCOCC1)C(=O)N[C@@H](Cc1ccc2c(c1)OCO2)C(=O)N[C@@H](CC1CCCC1)C(=O)[C@@]1(C)CO1` [Compound C-1012, (S)-3-(benzo[d][1,3]dioxol-5-yl)-N-((S)-3-cyclopentyl-1-((R)-2-methyloxiran-2-yl)-1-oxopropan-2-yl)-2-((S)-2-(2-morpholinoacetamido)propanamido)propanamide] returned a solubility in the data set “Solubility pH 7” of 1720 µg/mL (≈ 2940 µM). Besides, the IC50 in data set [1] amounted to 470 nM; in data set [2], 92.5 nM; in data set [3] it was 1280 nM; in data set [4], 167 nM.

`C[C@H](NC(=O)CN1CCOCC1)C(=O)N[C@@H](Cc1coc2ccccc12)C(=O)N[C@@H](CC1CCCC1)C(=O)[C@@]1(C)CO1` [Compound C-1015, (S)-3-(benzofuran-3-yl)-N-((S)-3-cyclopentyl-1-((R)-2-methyloxiran-2-yl)-1-oxopropan-2-yl)-2-((S)-2-(2-morpholinoacetamido)propanamido)propanamide] showed a solubility in the data set “Solubility pH 7” of 212 µg/mL (≈ 364 µM). Further, the IC50 was determined as 506 nM in data set [1], 167 nM in data set [2], 1140 nM in data set [3] and 498 nM in data set [4].

`COc1ccc(C[C@H](NC(=O)[C@H](C)NC(=O)CN2CCOCC2)C(=O)N[C@@H](CC2CCCC2)C(=O)[C@@]2(C)CO2)cc1O` [Compound C-1018, (S)-N-((S)-3-cyclopentyl-1-((R)-2-methyloxiran-2-yl)-1-oxopropan-2-yl)-3-(3-hydroxy-4-methoxyphenyl)-2-((S)-2-(2-morpholinoacetamido)propanamido)propanamide] registered a solubility in the data set “Solubility pH 7” of 5840 µg/mL (≈ 9910 µM). Moreover, the IC50 in data set [1] stood at 656 nM; in data set [2], 170 nM; in data set [3] it was 1730 nM; in data set [4], 184 nM.

`COc1ccc(C[C@H](NC(=O)[C@@H](C)NC(=O)C2CCCC2)C(=O)N[C@@H](CC2CCCC2)C(=O)[C@@]2(C)CO2)cc1` [Compound C-1021, N-((R)-1-(((S)-1-(((S)-3-cyclopentyl-1-((R)-2-methyloxiran-2-yl)-1-oxopropan-2-yl)amino)-3-(4-methoxyphenyl)-1-oxopropan-2-yl)amino)-1-oxopropan-2-yl)cyclopentanecarboxamide]: in the data set “Solubility pH 7”, the concentration in solution (solubility) was 19.3 µg/mL (≈ 35.6 µM). The concentration for half-maximal inhibition (IC50) in data set [1] is 3540 nM; in data set [2], 144 nM; in data set [3] it was 1900 nM; in data set [4] it was 113 nM.

In the case of `COc1ccc([C@@H](O)[C@H](NC(=O)[C@H](C)NC(=O)CN2CCOCC2)C(=O)N[C@@H](CC2CCCC2)C(=O)[C@@]2(C)CO2)cc1` [Compound C-1022, (2S,3R)-N-((S)-3-Cyclopentyl-1-((R)-2-methyloxiran-2-yl)-1-oxopropan-2-yl)-3-hydroxy-3-(4-methoxyphenyl)-2-((S)-2-(2-morpholinoacetamido)propanamido)propanamide], the solubility in the data set “Solubility pH 7” stood at 4050 µg/mL (≈ 6880 µM). In addition, the IC50 is 729 nM in data set [1], 115 nM in data set [2], 1110 nM in data set [3] and 85.1 nM in data set [4].

Turning to `C[C@H](NC(=O)CN1CCOCC1)C(=O)N[C@@H](Cc1ccc(S(C)(=O)=O)cc1)C(=O)N[C@@H](CC1CCCC1)C(=O)[C@@]1(C)CO1` [Compound C-1027, (S)-N-((S)-3-cyclopentyl-1-((R)-2-methyloxiran-2-yl)-1-oxopropan-2-yl)-3-(4-(methylsulfonyl)phenyl)-2-((S)-2-(2-morpholinoacetamido)propanamido)propanamide], the solubility in the data set “Solubility pH 7” is 5750 µg/mL (≈ 9260 µM). Further, the half-maximal inhibitory concentration (IC50) in data set [1] is 775 nM; in data set [2], 108 nM; in data set [3], 1050 nM; in data set [4] it was 165 nM.

`COc1ccc(C[C@H](NC(=O)[C@@H](C)NC(=O)C2CCOCC2)C(=O)N[C@@H](CC2CCCC2)C(=O)[C@@]2(C)CO2)cc1` [Compound C-1028, N-((R)-1-(((S)-1-(((S)-3-cyclopentyl-1-((R)-2-methyloxiran-2-yl)-1-oxopropan-2-yl)amino)-3-(4-methoxyphenyl)-1-oxopropan-2-yl)amino)-1-oxopropan-2-yl)tetrahydro-2H-pyran-4-carboxamide] showed a solubility in “Solubility pH 7” of 215 µg/mL (≈ 385 µM). Further, the IC50 in data set [1] worked out at 1010 nM; in data set [2], 53.8 nM; in data set [3], 807 nM; in data set [4], 52.6 nM.

For `COc1ccc(C[C@H](NC(=O)[C@@H](C)NC(=O)C2CC(=O)C2)C(=O)N[C@@H](CC2CCCC2)C(=O)[C@@]2(C)CO2)cc1` [Compound C-1029, N-((R)-1-(((S)-1-(((S)-3-cyclopentyl-1-((R)-2-methyloxiran-2-yl)-1-oxopropan-2-yl)amino)-3-(4-methoxyphenyl)-1-oxopropan-2-yl)amino)-1-oxopropan-2-yl)-3-oxocyclobutanecarboxamide], the concentration in solution in the data set “Solubility pH 7” (solubility) came to 822 µg/mL (≈ 1520 µM). The IC50 in data set [1] was found to be 4110 nM; in data set [2] it was 214 nM; in data set [3], 3790 nM; in data set [4], 303 nM.

In turn, `COc1ccc(C[C@H](NC(=O)[C@H](C)NC(=O)CN2CCOCC2)C(=O)N[C@@H](CC2CCCC2)C(=O)[C@H]2CO2)cc1` [Compound C-1030, (S)-N-((S)-3-cyclopentyl-1-((R)-oxiran-2-yl)-1-oxopropan-2-yl)-3-(4-methoxyphenyl)-2-((S)-2-(2-morpholinoacetamido)propanamido)propanamide] came in with a solubility in the data set “Solubility pH 7” of 220 µg/mL (≈ 394 µM). Further, the IC50 in data set [1] turned out to be 201 nM; in data set [2], 7.93 nM; in data set [3], 497 nM; in data set [4], 11.2 nM.

For `COc1ccc(C[C@H](NC(=O)[C@@H](C)NC(=O)[C@H]2C[C@H](O)C2)C(=O)N[C@@H](CC2CCCC2)C(=O)[C@@]2(C)CO2)cc1` [Compound C-1041, (1r,3R)-N-((R)-1-(((S)-1-(((S)-3-cyclopentyl-1-((R)-2-methyloxiran-2-yl)-1-oxopropan-2-yl)amino)-3-(4-methoxyphenyl)-1-oxopropan-2-yl)amino)-1-oxopropan-2-yl)-3-hydroxycyclobutanecarboxamide], the concentration in solution in the data set “Solubility pH 7” (solubility) was 1830 µg/mL (≈ 3360 µM). Moreover, the half-inhibitory concentration (IC50) was 7030 nM in data set [1], 232 nM in data set [2], 12500 nM in data set [3] and 440 nM in data set [4].

`COc1ccc(C[C@H](NC(=O)[C@H](C)NC(=O)CN2CCC(F)(F)CC2)C(=O)N[C@@H](CC2CCCC2)C(=O)[C@@]2(C)CO2)cc1` [Compound C-1046, (S)-N-((S)-3-cyclopentyl-1-((R)-2-methyloxiran-2-yl)-1-oxopropan-2-yl)-2-((S)-2-(2-(4,4-difluoropiperidin-1-yl)acetamido)propanamido)-3-(4-methoxyphenyl)propanamide] returned a solubility in the data set “Solubility pH 7” of 152 µg/mL (≈ 250 µM). Besides, the IC50 was found to be 361 nM in data set [1], 63.5 nM in data set [2], 198 nM in data set [3] and 37.9 nM in data set [4].

`C[C@H](NC(=O)CN1CCOCC1)C(=O)N[C@@H](Cc1ccc(C(N)=O)cc1)C(=O)N[C@@H](CC1CCCC1)C(=O)[C@@]1(C)CO1` [Compound C-1049, 4-((S)-3-(((S)-3-cyclopentyl-1-((R)-2-methyloxiran-2-yl)-1-oxopropan-2-yl)amino)-2-((S)-2-(2-morpholinoacetamido)propanamido)-3-oxopropyl)benzamide] returned a solubility in “Solubility pH 7” of 3510 µg/mL (≈ 5990 µM). The half-inhibitory concentration (IC50) is 305 nM in data set [1], 66.8 nM in data set [2], 796 nM in data set [3] and 153 nM in data set [4].

Turning to `C[C@H](NC(=O)CN1CCOCC1)C(=O)N[C@@H](Cc1ccc(C#N)cc1)C(=O)N[C@@H](CC1CCCC1)C(=O)[C@@]1(C)CO1` [Compound C-1050, (S)-3-(4-cyanophenyl)-N-((S)-3-cyclopentyl-1-((R)-2-methyloxiran-2-yl)-1-oxopropan-2-yl)-2-((S)-2-(2-morpholinoacetamido)propanamido)propanamide], the solubility in “Solubility pH 7” worked out at 1280 µg/mL (≈ 2250 µM). Moreover, the IC50 in data set [1] was 277 nM; in data set [2] it was 53.5 nM; in data set [3], 765 nM; in data set [4], 116 nM.

The compound `C[C@@H](NC(=O)C1CCOCC1)C(=O)N[C@@H](Cc1ccc(S(C)(=O)=O)cc1)C(=O)N[C@@H](CC1CCCC1)C(=O)[C@@]1(C)CO1` [Compound C-1051, N-((R)-1-(((S)-1-(((S)-3-cyclopentyl-1-((R)-2-methyloxiran-2-yl)-1-oxopropan-2-yl)amino)-3-(4-(methylsulfonyl)phenyl)-1-oxopropan-2-yl)amino)-1-oxopropan-2-yl)tetrahydro-2H-pyran-4-carboxamide] yielded a solubility in the data set “Solubility pH 7” of 702 µg/mL (≈ 1160 µM). The IC50 in data set [1] stood at 978 nM; in data set [2], 45.1 nM; in data set [3], 705 nM; in data set [4] it was 90.8 nM.

In general, solubility refers to the concentration that dissolves in the medium under given conditions. As usually defined, the IC50 is the concentration that gives 50% inhibition. Low values mean higher potency, high ones lower potency.

The values are drawn from patent USRE47302E1 (ONYX THERAPEUTICS INC., priority 2013, dated 2019).
